The results in this text go back to PMC12195967, “Cobalt(II) Complexes of 4′–Nitro–Fenamic Acid: Characterization and Biological Evaluation” (Molecules, 2025).

A short description of assay [1]: Reduction of hydrogen peroxide. To be noted: compounds 0.1 mM; phosphate buffer pH 7.4; 10 min. As for the experimental part: Harmful hydroxyl radicals are released when hydrogen peroxide interacts with transition metal ions, leading to oxidative stress. Consequently, both oxidative stress and the production of reactive oxygen species could be reduced by ^•OH scavengers and H2O2 reducing agents.
S1 Antioxidant activity assay
The antioxidant activity of the compound was evaluated via the ability to scavenge in vitro free radicals such as DPPH and ABTS and to reduce H2O2. […]
S1.3 Reduction of hydrogen peroxide
The ability of the compounds to reduce hydrogen peroxide (H2O2) was estimated according to the method described in the literature. The reaction mixture contained 20 μL of each of the tested compounds (0.1 mM) and 5 μL H2O2 solution (40 mM) in phosphate […]
buffer (50 mM, pH 7.4). The absorbance was measured at 230 nm after 10 min. The antioxidant activity (reduction of H2O2) of the compounds was expressed as the percentage decrease of the initial H2O2 solution (H2O2%). […]

In another assay the test system is EB–DNA adduct (CT DNA). The experiment in a line: EB-displacement (EB–DNA fluorescence quenching). The class given is binding, calf. To be noted: for relative EB–DNA fluorescence emission intensity (I/Io, %), final: % of the initial EB–DNA fluorescence remaining, λemission 594 nm; for percentage of EB–DNA fluorescence emission quenching (ΔI/I0, %): λexcitation 540 nm, emission 594 nm, buffer pH 7; for quenching constant Kq (EB–DNA): τ0 = 23 ns. How it is done: For the current study, the EB–DNA adduct was prepared in situ after 1-h pretreatment of EB (40 μΜ) and CT DNA (40 μΜ) in buffer solution (sodium chloride 150 mM and sodium citrate 15 mM at pH = 7).
Furthermore, the Stern–Volmer constants (KSV) that represent the ability of the compounds to induce quenching were calculated with the Stern–Volmer equation (Equation (S2)) and the corresponding Stern–Volmer plots […] vs. [Q] (Figure S8). […] The corresponding quenching constants (Kq) were calculated with Equation (S3) using the value of 23 ns as the fluorescence lifetime (τ0) of EB–DNA adduct.
S3.4 EB−displacement studies
The competition of the compounds with EB was investigated by fluorescence emission spectroscopy to examine whether the compounds can displace EB from its DNA−EB adduct. The CT DNA−EB complex was formed by pre−treating 40 μM EB and […] CT DNA in buffer (150 mM NaCl and 15 mM trisodium citrate at pH 7.0). The possible displacement of EB by the compound sand subsequently the intercalating effect was studied by the stepwise addition of a certain amount of the solution of each compound into the solution of the CT DNA−EB adduct. The solutions were excited at 540 nm and the emission was monitored from 550−700 nm with λmax = 592−594 nm and the effect of the addition of the compounds to the CT−DNA EB solution was recorded. […]
fluorescence emission bands at room temperature in solution or in the presence of CT DNA or EB under the same experimental conditions (λexcitation = 540 nm); therefore, the observed quenching of the EB−DNA solution may be attributed to the displacement of EB from its […]
The Stern−Volmer constants (KSV, in M−1) were calculated according to the linear Stern−Volmer equation (equation S2) and the respective plots Io/I versus [compound]:
Io = 1 + K τ [Q] = 1 + K [Q] (equation S2) […]
where Io and I are the emission intensities of the EB−DNA solution in the absence and the presence of the compound, respectively, τo = the average lifetime of the emitting system without the quencher and kq = the quenching constant. Taking τo = 23 ns as the fluorescence lifetime of the EB−DNA adduct, the quenching constant of the compound (Kq, in M−1s−1) was calculated according to equation [6]: […]

The target in assay [2] is T1, bovine serum albumin (BSA) (Bos taurus, UniProt P02769).
T1 construct: purchased Sigma-Aldrich Co
T1 sequence (P02769 25-607): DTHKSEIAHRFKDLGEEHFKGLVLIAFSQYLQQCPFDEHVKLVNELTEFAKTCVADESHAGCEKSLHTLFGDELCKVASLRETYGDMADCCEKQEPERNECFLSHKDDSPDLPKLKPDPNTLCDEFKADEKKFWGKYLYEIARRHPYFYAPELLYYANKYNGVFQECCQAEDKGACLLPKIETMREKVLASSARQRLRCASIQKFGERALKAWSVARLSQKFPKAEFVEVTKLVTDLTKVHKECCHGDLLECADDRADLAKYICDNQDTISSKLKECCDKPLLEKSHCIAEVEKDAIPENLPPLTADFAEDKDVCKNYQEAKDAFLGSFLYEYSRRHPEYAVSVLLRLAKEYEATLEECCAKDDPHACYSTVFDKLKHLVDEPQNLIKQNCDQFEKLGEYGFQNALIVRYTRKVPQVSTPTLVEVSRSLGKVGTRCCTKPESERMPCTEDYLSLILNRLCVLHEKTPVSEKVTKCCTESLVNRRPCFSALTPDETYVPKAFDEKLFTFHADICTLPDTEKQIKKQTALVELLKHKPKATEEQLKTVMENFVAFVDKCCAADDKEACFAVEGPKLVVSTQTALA
The experiment in a line: Competitive albumin-fluorescence studies with warfarin and ibuprofen. The class given is binding. Particulars: for preferential BSA-binding site: from comparison of K with and without site markers; for K(BSA, ibuprofen): in the presence of ibuprofen; for K(BSA, warfarin): in the presence of warfarin. An excerpt: (§1) One of the primary functions of SAs is the transport of various compounds such as drugs, fatty acids and hormones. Albumins are composed of three domains, I, II and III, and each of them is subdivided into A and B subdomains that host compounds [90]. […] Site markers like warfarin and ibuprofen are used to identify in which albumin site a compound is bound, as these markers bind selectively to Sudlow’s sites I and II, respectively. The SA-binding site of the compounds was investigated by calculating the SA-binding constant for both HSA and BSA in the presence of ibuprofen or warfarin and comparing them with the values previously derived (in the absence of any marker).
(§2) Incremental addition of the compounds into a solution containing the SA (HSA or BSA) and the respective site marker (warfarin or ibuprofen) induced quenching of the initial fluorescence emission band (Figures S19–S22). The SA-binding constants for each compound in the presence of warfarin or ibuprofen were calculated with the Scatchard equation (Equation (S7)) and the corresponding plots (Figures S23–S26) and are compared with those calculated in the absence of any site marker to determine the preferable drug site. […]
(§3) From the Scatchard equation:
(§4) [Q] = nK − K Io (equation S7) where n is the number of binding sites per albumin and K is the albumin−binding constant (K, in M−1) is calculated from the slope in plots (ΔI/Io)/[compound] versus (ΔI/Io) and n is given by the ratio of y intercept to the slope.
(§5) S5.2 Competitive albumin−fluorescence studies with warfarin and ibuprofen The competitive studies with warfarin or ibuprofen (as site−markers) were performed by tryptophan fluorescence quenching experiments using a fixed concentration of the albumin and site markers (3 μM) in buffer (containing 15 mM trisodium citrate and 150 mM NaCl at pH 7.0). The fluorescence emission spectra were recorded in the presence of increasing amounts of the compounds as quenchers with an excitation wavelength of 295 nm. The Scatchard equation (equation S7) and plots were applied on the corrected albumin−fluorescence emission spectra to determine the albumin−binding constant of the compounds in the presence of warfarin or ibuprofen.

Assay [3] has as its target T2, human serum albumin (HSA) (Homo sapiens, UniProt P02768).
T2 construct: purchased Sigma-Aldrich Co
The description is as above. The class given is binding. To be noted: for K(HSA, ibuprofen): in the presence of ibuprofen; for K(HSA, warfarin): in the presence of warfarin.
Text: as §1, §2, §3, §4, §5

The structures appear in SMILES notation. Where “and” joins values, the source holds several entries; their conditions need not be identical. Equal entries are not always repeated.

T2 sequence (P02768 25-609): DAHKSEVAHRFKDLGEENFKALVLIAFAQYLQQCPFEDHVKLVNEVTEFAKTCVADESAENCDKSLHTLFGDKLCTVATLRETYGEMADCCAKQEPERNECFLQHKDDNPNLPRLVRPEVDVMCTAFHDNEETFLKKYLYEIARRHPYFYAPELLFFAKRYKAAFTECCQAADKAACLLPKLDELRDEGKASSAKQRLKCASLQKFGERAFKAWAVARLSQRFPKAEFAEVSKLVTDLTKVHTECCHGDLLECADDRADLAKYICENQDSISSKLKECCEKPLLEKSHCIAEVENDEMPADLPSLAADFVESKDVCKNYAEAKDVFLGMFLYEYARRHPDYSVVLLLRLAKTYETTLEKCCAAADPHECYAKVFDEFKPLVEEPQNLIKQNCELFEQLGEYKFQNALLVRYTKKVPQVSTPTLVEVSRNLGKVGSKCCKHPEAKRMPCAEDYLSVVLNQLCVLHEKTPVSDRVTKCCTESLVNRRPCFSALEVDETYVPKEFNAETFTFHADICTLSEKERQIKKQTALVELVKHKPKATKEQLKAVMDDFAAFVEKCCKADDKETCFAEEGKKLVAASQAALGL

As to `O=C(O)c1ccccc1Nc1ccc([N+](=O)[O-])cc1` [4′–NO2–fenH, 4′–nitrofenamic acid], in assay [1], the “H2O2-reducing ability (H2O2%)” value was 66.46% and 66.46 ± 0.33%. Moreover, in the assay on EB–DNA adduct (CT DNA), the “Stern–Volmer constant Ksv (EB–DNA)” value is 5.36 (±0.27) × 10^4 M^−1; the “relative EB–DNA fluorescence emission intensity (I/Io, %), final” value is 52.9%; the “percentage of EB–DNA fluorescence emission quenching (ΔI/I0, %)” value (from here on “percentage … (ΔI/I0, %)”) stood at 47.1%; the “quenching constant Kq (EB–DNA)” value is given as 2.33 (±0.11) × 10^12 M^−1s^−1. Also, in assay [2], the “preferential BSA-binding site” value is listed as “Sudlow’s site I”; the “K(BSA, ibuprofen)” value is 2.70 (±0.11) × 10^5 M^−1; the “K(BSA, warfarin)” value is given as 1.41 (±0.06) × 10^5 M^−1. Further, in assay [3], the “K(HSA, ibuprofen)” value is 2.91 (±0.06) × 10^5 M^−1 and the “K(HSA, warfarin)” value was 3.22 (±0.12) × 10^5 M^−1.

As to `CO.CO.CO.CO.O=C([O-])c1ccccc1Nc1ccc([N+](=O)[O-])cc1.O=C([O-])c1ccccc1Nc1ccc([N+](=O)[O-])cc1.[Co+2]` [Complex 1, [Co(4′–NO2–fen)2(MeOH)4]], the “H2O2-reducing ability (H2O2%)” value in assay [1] came out at 72.68 ± 0.63%. In the assay with EB–DNA adduct (CT DNA), the “Stern–Volmer constant Ksv (EB–DNA)” value is 4.99 (±0.14) × 10^4 M^−1; the “relative EB–DNA fluorescence emission intensity (I/Io, %), final” value is listed as 35.4%; the “percentage … (ΔI/I0, %)” value came out at 64.6%; the “quenching constant Kq (EB–DNA)” value is on record as 2.17 (±0.06) × 10^12 M^−1s^−1. For the same compound, in assay [2], the “preferential BSA-binding site” value is reported as “Sudlow’s site I”; the “K(BSA, ibuprofen)” value is 1.38 (±0.08) × 10^5 M^−1; the “K(BSA, warfarin)” value is 1.06 (±0.04) × 10^5 M^−1. Besides, in assay [3], the “K(HSA, ibuprofen)” value was 1.66 (±0.09) × 10^5 M^−1 and the “K(HSA, warfarin)” value is 1.99 (±0.11) × 10^5 M^−1.

For `O=C([O-])c1ccccc1Nc1ccc([N+](=O)[O-])cc1.O=C([O-])c1ccccc1Nc1ccc([N+](=O)[O-])cc1.[Co+2].c1ccc(Nc2ccccn2)nc1` [Complex 2, [Co(4′–NO2–fen)2(bipyam)]], in assay [1], the “H2O2-reducing ability (H2O2%)” value was found to be 77.59 ± 0.28%. Moreover, in the assay with EB–DNA adduct (CT DNA), the “Stern–Volmer constant Ksv (EB–DNA)” value is 8.91 (±0.21) × 10^4 M^−1; the “relative EB–DNA fluorescence emission intensity (I/Io, %), final” value was 32.6%; the “percentage … (ΔI/I0, %)” value is listed as 67.3%; the “quenching constant Kq (EB–DNA)” value was 3.88 (±0.09) × 10^12 M^−1s^−1. In assay [2], the “preferential BSA-binding site” value is recorded as “Sudlow’s site II”; the “K(BSA, ibuprofen)” value is reported as 1.42 (±0.09) × 10^5 M^−1; the “K(BSA, warfarin)” value is given as 1.85 (±0.06) × 10^5 M^−1. Also, in assay [3], the “K(HSA, ibuprofen)” value was 2.02 (±0.03) × 10^5 M^−1 and the “K(HSA, warfarin)” value is recorded as 2.75 (±0.19) × 10^5 M^−1.

For the compound `O=C([O-])c1ccccc1Nc1ccc([N+](=O)[O-])cc1.O=C([O-])c1ccccc1Nc1ccc([N+](=O)[O-])cc1.[Co+2].c1cnc2c(c1)ccc1cccnc12` [Complex 3, [Co(4′–NO2–fen)2(phen)]], the “H2O2-reducing ability (H2O2%)” value in assay [1] stood at 69.48 ± 0.37%. Besides, in the assay on EB–DNA adduct (CT DNA), the “Stern–Volmer constant Ksv (EB–DNA)” value is given as 7.39 (±0.21) × 10^4 M^−1; the “relative EB–DNA fluorescence emission intensity (I/Io, %), final” value is 26.3%; the “percentage … (ΔI/I0, %)” value turned out to be 73.7%; the “quenching constant Kq (EB–DNA)” value is 3.21 (±0.09) × 10^12 M^−1s^−1. Moreover, in assay [2], the “preferential BSA-binding site” value is “Sudlow’s site I”; the “K(BSA, ibuprofen)” value was 1.95 (±0.03) × 10^5 M^−1; the “K(BSA, warfarin)” value is listed as 1.60 (±0.06) × 10^5 M^−1. In addition, in assay [3], the “K(HSA, ibuprofen)” value is recorded as 5.23 (±0.17) × 10^4 M^−1 and the “K(HSA, warfarin)” value is given as 4.80 (±0.17) × 10^5 M^−1.

As to `C[O-].C[O-].Cc1ccc2ccc3ccc(C)nc3c2n1.Cc1ccc2ccc3ccc(C)nc3c2n1.O=C([O-])c1ccccc1Nc1ccc([N+](=O)[O-])cc1.O=C([O-])c1ccccc1Nc1ccc([N+](=O)[O-])cc1.[Co+2].[Co+2]` [Complex 4, [Co2(4′–NO2–fen)2(μ–CH3O)2(neoc)2]], the “H2O2-reducing ability (H2O2%)” value in assay [1] stood at 72.44 ± 0.42%. In the assay with EB–DNA adduct (CT DNA), the “Stern–Volmer constant Ksv (EB–DNA)” value is given as 7.78 (±0.24) × 10^4 M^−1; the “relative EB–DNA fluorescence emission intensity (I/Io, %), final” value is given as 26.0%; the “percentage … (ΔI/I0, %)” value is 74.0%; the “quenching constant Kq (EB–DNA)” value was 3.38 (±0.10) × 10^12 M^−1s^−1. Further, in assay [2], the “preferential BSA-binding site” value was “Sudlow’s site I”; the “K(BSA, ibuprofen)” value is 3.60 (±0.14) × 10^5 M^−1; the “K(BSA, warfarin)” value is 2.40 (±0.06) × 10^5 M^−1. Further, in assay [3], the “K(HSA, ibuprofen)” value was 3.04 (±0.15) × 10^5 M^−1 and the “K(HSA, warfarin)” value was 5.00 (±0.18) × 10^5 M^−1.
